Publication PMC7486940, “Pre-symptomatic Caspase-1 inhibitor delays cognitive decline in a mouse model of Alzheimer disease and aging” (Nature Communications, 2020)

What was measured:
[1] = system: J20 mice; design: method as in PMID 30254377; details: cited from earlier work
[2] = in vivo; details: female, C57BL/6J, mouse, ip, 50 mg/kg; for half-life: Half-life (t1/2) in plasma; for MRT inf: MRTinf in plasma
Procedure: Plasma, whole brain and CSF concentrations of VX-765 and its active metabolite, VRT-043198, were determined by LC-MS/MS at Paraza Pharma (Montreal, QC, Canada). Fourteen C57BL/6J female mice received a single IP dose of 50 mg · kg^−1 VX-765 and 2 mice per time point were euthanized at 0.25, 0.5, 1, 3, 6, 8 and 24 h post-injection. Mice were isoflurane anesthetized to collect CSF and perform a cardiac puncture followed by whole body perfusion with PBS. Plasma samples were extracted 1:1 in spiking solution and internal standard solution containing 0.1 μM glyburide in acetonitrile. Brain and CSF samples were extracted 1:1 in spiking solution and internal standard solution containing 0.2 μM labetalol in 50:50 methanol:acetonitrile. Samples were centrifuged at 4000 × g for 10 min at 4 °C, the plasma supernatant diluted 1:1 and the brain and CSF supernatant diluted 1:2 in H2O, and 5 μl was injected into a Quantis LC-MS/MS system for analysis.

[3] = system: J20 mice; experiment: open field; type: in vivo, mouse; details: 50 mg/kg IP 3x/week for 1 month, 4- to 20-week WO
Procedure: (§1) VX-765 (Adooq Bioscience, Irvine, CA, USA) was dissolved 5 mg • ml^−1 in 20% cremophor in dH2O[60] (Sigma-Aldrich, ON, Canada) and administered IPWT and J20 mice received three injections per week of either 50 mg • kg^−1 VX-765 or 20% cremophor vehicle for 4 weeks between 2 and 3 months of age. Mice were longitudinally followed starting 4 weeks after the last injection [4-week washout (WO)], then every other month at 12- and 20-week WO (6 and 8 months of age, respectively). Intermediate 8- and 16-week WO periods were also looked at with a smaller number of mice. After each WO period, animals were randomly chosen, independent of behavioural performance, for sacrifice and assigned to either histological or biochemical analysis (Fig. 2a).
(§2) Open-field and novel object recognition (NOR) were measured at all WO periods. The Barnes maze was assessed at 12- and 20-week WO. Open field: Mice were placed in an open-field chamber, composed of a plexiglass box with no ceiling and white floor, and allowed to explore for 5 min. NOR: Mice were pre-exposed to two identical objects in the open-field chamber for 5 min. Two hours after pre-exposure, mice were placed back into the chamber and exposed to one familiar object and one novel object for 5 min (test phase). Mice were exposed to a specific object only once across multiple test sessions. Barnes maze: Learning acquisition (days 1–4)—each mouse was trained to find the target and enter the escape box within 180 s. Four trials per day, ~15 min apart, were performed for 4 consecutive days. Probe (day 5)—a single, 90 s trial was performed on each mouse to measure primary latency and number of errors to reach the blocked target. Target hole location was changed between the two separate test sessions. Behavioural scoring was blinded to mouse genotype and treatment.

[4] = system: WT mice; experiment: open field; type: in vivo, mouse; details: 50 mg/kg IP 3x/week for 1 month
Procedure: as §1, §2

CCO[C@@H]1OC(=O)C[C@@H]1NC(=O)[C@@H]1CCCN1C(=O)[C@@H](NC(=O)c1ccc(N)c(Cl)c1)C(C)(C)C [VX-765, (S)-1-((S)-2-{[1-(4-amino-3-chloro-phenyl)-methanoyl]-amino}-3,3-dimethyl-butanoyl)-pyrrolidine-2-carboxylic acid ((2R,3S)-2-ethoxy-5-oxo-tetrahydro-furan-3-yl)-amide]
toxicity [1]: non-toxic
memory deficits, inflammation, synaptic loss and Aβ accumulation ([1]; given at the onset of the J20 mouse symptoms): reverses spatial and episodic memory deficits, inflammation and synaptic loss, and prevents progressive Aβ accumulation
concentration at 0.25 h ([2]; CSF concentration, Mean): 330 nM
concentration at 0.5 h ([2]; CSF concentration, Mean): 620 nM
concentration at 1 h ([2]; CSF concentration, Mean): 80 nM
concentration at 3 h ([2]; CSF concentration, Mean): 60 nM
concentration at 6 h ([2]; CSF concentration, Mean): 60 nM
concentration at 8 h ([2]; CSF concentration, Mean): 100 nM
concentration at 0.25 h ([2]; CSF concentration, Mouse 1): 210 nM
concentration at 0.5 h ([2]; CSF concentration, Mouse 1): 70 nM
concentration at 1 h ([2]; CSF concentration, Mouse 1): 60 nM
concentration at 3 h ([2]; CSF concentration, Mouse 1): 70 nM
concentration at 6 h ([2]; CSF concentration, Mouse 1): 50 nM
concentration at 8 h ([2]; CSF concentration, Mouse 1): 70 nM
concentration at 0.25 h ([2]; CSF concentration, Mouse 2): 450 nM
concentration at 0.5 h ([2]; CSF concentration, Mouse 2): 1170 nM
concentration at 1 h ([2]; CSF concentration, Mouse 2): 100 nM
concentration at 3 h ([2]; CSF concentration, Mouse 2): 40 nM
concentration at 6 h ([2]; CSF concentration, Mouse 2): 60 nM
concentration at 8 h ([2]; CSF concentration, Mouse 2): 130 nM
Cmax ([2]; Cmax in CSF, Mean): 690 nM
Cmax ([2]; Cmax in CSF, Mouse 1): 210 nM
Cmax ([2]; Cmax in CSF, Mouse 2): 1170 nM
Cmax ([2]; Cmax in brain, Mean): 160 nM
Cmax ([2]; Cmax in brain, Mouse 1): 240 nM
Cmax ([2]; Cmax in brain, Mouse 2): 90 nM
Cmax ([2]; Cmax in plasma, Mean): 1590 nM
Cmax ([2]; Cmax in plasma, Mouse 1): 1540 nM
Cmax ([2]; Cmax in plasma, Mouse 2): 1630 nM
half-life ([2]; Mean): 192 min
half-life ([2]; Mouse 1): 193 min
half-life ([2]; Mouse 2): 190 min
MRT inf ([2]; Mean): 313 min
MRT inf ([2]; Mouse 1): 288 min
MRT inf ([2]; Mouse 2): 338 min
Tmax ([2]; Tmax in CSF, Mean): 22.8 min
Tmax ([2]; Tmax in CSF, Mouse 1): 15 min
Tmax ([2]; Tmax in CSF, Mouse 2): 30 min
Tmax ([2]; Tmax in brain, Mean): 22.8 min
Tmax ([2]; Tmax in brain, Mouse 1): 15 min
Tmax ([2]; Tmax in brain, Mouse 2): 30 min
Tmax ([2]; Tmax in plasma, Mean): 45 min
Tmax ([2]; Tmax in plasma, Mouse 1): 30 min
Tmax ([2]; Tmax in plasma, Mouse 2): 60 min
concentration at 0.25 h ([2]; brain concentration, Mean): 160 nM
concentration at 0.5 h ([2]; brain concentration, Mean): 70 nM
concentration at 0.25 h ([2]; brain concentration, Mouse 1): 240 nM
concentration at 0.5 h ([2]; brain concentration, Mouse 1): 50 nM
concentration at 0.25 h ([2]; brain concentration, Mouse 2): 70 nM
concentration at 0.5 h ([2]; brain concentration, Mouse 2): 90 nM
concentration at 0.25 h ([2]; plasma concentration, Mean): 290 nM
concentration at 0.5 h ([2]; plasma concentration, Mean): 1010 nM
concentration at 1 h ([2]; plasma concentration, Mean): 1250 nM
concentration at 3 h ([2]; plasma concentration, Mean): 400 nM
concentration at 6 h ([2]; plasma concentration, Mean): 330 nM
concentration at 8 h ([2]; plasma concentration, Mean): 320 nM
concentration at 24 h ([2]; plasma concentration, Mean): 10 nM
concentration at 0.25 h ([2]; plasma concentration, Mouse 1): 310 nM
concentration at 0.5 h ([2]; plasma concentration, Mouse 1): 1540 nM
concentration at 1 h ([2]; plasma concentration, Mouse 1): 870 nM
concentration at 3 h ([2]; plasma concentration, Mouse 1): 450 nM
concentration at 6 h ([2]; plasma concentration, Mouse 1): 430 nM
concentration at 8 h ([2]; plasma concentration, Mouse 1): 200 nM
concentration at 24 h ([2]; plasma concentration, Mouse 1): 8 nM
concentration at 0.25 h ([2]; plasma concentration, Mouse 2): 270 nM
concentration at 0.5 h ([2]; plasma concentration, Mouse 2): 490 nM
concentration at 1 h ([2]; plasma concentration, Mouse 2): 1630 nM
concentration at 3 h ([2]; plasma concentration, Mouse 2): 350 nM
concentration at 6 h ([2]; plasma concentration, Mouse 2): 220 nM
concentration at 8 h ([2]; plasma concentration, Mouse 2): 450 nM
concentration at 24 h ([2]; plasma concentration, Mouse 2): 14 nM
open field hyperactivity (distance travelled, quadrant entries) [3]: attenuated hyperactivity in J20 mice only at 4-week WO
open field activity ([4]; WT, all WO periods): had no effect on WT mice at any WO period
open field locomotor activity, time moving, thigmotaxis ([4]; between vehicle and VX-765 treatment): no differences in locomotor activity, time moving or thigmotaxis
